This note sets out measurements from patent US20090221559A1 (priority 2005, published 2009).

Assay [1] relates to HCV replicon RNA replication in Huh-7 luc/neo (Huh-Luc) cells. Nature of the assay: HCV replicon assay (stable replicon cell reporter assay, luciferase read-out). The assay is classed as cell-based, HCV type 1b. The method in brief:
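Huh-7 cells stably carry a bicistronic HCV 1b NS3-NS5B subgenomic replicon with firefly luciferase and neo markers. Cells were plated with compound across a concentration range and incubated three days. Replication was measured as luciferase activity to give dose-response curves.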

For assay [2], the target named is T1, HCV NS5B polymerase (His-tagged, C-terminal 21 amino acid deleted NS5B, HC-J4) (Hepatitis C virus genotype 1b, UniProt O92972).
T1 construct: The cDNA encoding NS5B amino acid 1-570 (HC-J4, genotype 1b); His tag (His6, from pET-21b) (C); made in house; host or cells: E. coli BL21 (DE3)
T1 sequence (O92972 2417-3000, looked up, stated change not applied): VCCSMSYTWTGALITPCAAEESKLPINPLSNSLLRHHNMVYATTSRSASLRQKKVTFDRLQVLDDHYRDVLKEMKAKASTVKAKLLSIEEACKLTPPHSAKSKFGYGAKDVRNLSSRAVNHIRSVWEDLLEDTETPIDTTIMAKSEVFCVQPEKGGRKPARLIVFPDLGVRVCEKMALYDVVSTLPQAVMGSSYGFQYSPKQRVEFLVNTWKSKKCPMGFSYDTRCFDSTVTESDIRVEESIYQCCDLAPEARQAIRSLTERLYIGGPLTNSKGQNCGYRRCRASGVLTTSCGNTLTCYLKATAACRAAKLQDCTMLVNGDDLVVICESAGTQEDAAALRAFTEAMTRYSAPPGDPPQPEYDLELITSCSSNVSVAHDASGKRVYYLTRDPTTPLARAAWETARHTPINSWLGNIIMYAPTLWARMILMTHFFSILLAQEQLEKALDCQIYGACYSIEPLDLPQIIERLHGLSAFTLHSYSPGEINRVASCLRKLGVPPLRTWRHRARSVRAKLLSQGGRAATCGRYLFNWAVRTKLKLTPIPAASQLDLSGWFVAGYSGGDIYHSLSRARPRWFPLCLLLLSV
Nature of the assay: NS5b polymerase assay (biochemical RdRp assay, 3H-GTP incorporation, SPA beads). Details: species or system HCV genotype 1b. To be noted: 3H-GTP incorporation, 2 h at 25° C. The method in brief:
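His-tagged C-terminal-21-aa-deleted NS5B (genotype 1b, HC-J4) at 200 nM was preincubated 15 min at RT with compound on 5′-biotinylated oligo(rG13)/poly(rC) template/primer before NTPs. Reaction with 600 nM GTP plus 0.1 μCi 3H-GTP and 5 mM MgCl2 in Tris pH 7.5 ran 2 h at 25 °C. Stopped with EDTA/SPA beads for incorporation counting.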

Setting [3] is: Hepatitis C virus, Huh-7, 72 h, read-out: Replicon Assay EC50, Huh-Luc cells, three days incubation, luciferase activity.
The mark [4] stands for this setting: NS5B Polymerase Assay IC50, 200 nM enzyme.
The mark [5] stands for this setting: Huh-Luc cells, three days incubation, luciferase activity, read-out: Replicon Assay EC50.
The mark [6] stands for this setting: 200 nM enzyme, read-out: NS5B Polymerase Assay IC50.

Read-outs that look alike come from different tables or passages of the source.

Turning to `CCC(C)Oc1ccccc1C1C2=C(CC(c3ccc(OC)c(OC)c3)CC2=O)Nc2ccccc2N1C(=O)c1ccccc1` (stereo not drawn) [compound 183], the EC50 in assay [1] (setting [3]) turned out to be 1.32 µM. This compound returned an IC50 in assay [2] (setting [4]) of over 42.7 µM.

As for `CCC(=O)N1c2ccccc2NC2=C(C(=O)CC(c3ccc(C)cc3)C2)C1c1ccc(C)cc1` (stereo not drawn) [compound 201], the EC50 in assay [1] (setting [3]) came to 9.62 µM. In addition, in assay [2] (setting [4]), the IC50 was over 33.3 µM.

In the case of `CCOc1ccccc1C1CC(=O)C2=C(C1)Nc1ccccc1N(C(=O)CC)C2c1ccc(OC)cc1` (stereo not drawn) [compound 219], the half-maximal effective concentration (EC50) in assay [1] (setting [5]) was determined as 2.26 µM. The IC50 in assay [2] (setting [6]) was over 42.7 µM.

`CCCOc1ccccc1C1CC(=O)C2=C(C1)Nc1ccccc1N(C(=O)CC)C2c1ccc(OC)cc1` (stereo not drawn) [compound 220]: in assay [1] (setting [5]), the EC50 stood at 3.08 µM. The IC50 in assay [2] (setting [6]) is over 42.7 µM.

Regarding `COc1ccc(C2C3=C(CC(c4cccc([N+](=O)[O-])c4)CC3=O)Nc3ccccc3N2C(=O)c2ccccc2)cc1` (stereo not drawn) [compound 221], the EC50 in assay [1] (setting [5]) was found to be 23.2 µM. Besides, in assay [2] (setting [6]), the IC50 was over 42.7 µM.

Regarding `CCCCCC(=O)N1c2ccccc2NC2=C(C(=O)CC(c3ccccc3OCCC)C2)C1c1ccc(OC)cc1` (stereo not drawn) [compound 222], the EC50 in assay [1] (setting [5]) came out at 7.73 µM. The IC50 in assay [2] (setting [6]) is over 42.7 µM.

Take `CCC(=O)N1c2ccccc2NC2=C(C(=O)CC(c3ccc(OC)cc3)C2)C1c1ccc(OC)cc1` (stereo not drawn) [compound 223]: the EC50 in assay [1] (setting [3]) was found to be 25 µM. Further, the IC50 in assay [2] (setting [4]) was over 42.7 µM.

Consider `CCCCCC(=O)N1c2ccccc2NC2=C(C(=O)CC(c3ccccc3)C2)C1c1ccccc1F` (stereo not drawn) [compound 224], for which the EC50 in assay [1] (setting [5]) came to 16.1 µM. For the same compound, the IC50 in assay [2] (setting [6]) is over 33.3 µM.

As to `COc1ccc(C2CC(=O)C3=C(C2)Nc2ccccc2N(C(=O)C(F)(F)F)C3c2ccc(Cl)cc2)cc1OC` (stereo not drawn) [compound 226], the EC50 in assay [1] (setting [5]) is 16.3 µM. For the same compound, the concentration for half-maximal inhibition (IC50) in assay [2] (setting [6]) was over 33.3 µM.

On to `CCC(=O)N1c2ccccc2NC2=C(C(=O)CC(c3ccc(OC)cc3)C2)C1c1ccc(Cl)cc1` (stereo not drawn) [compound 227], for which, in assay [1] (setting [5]), the EC50 turned out to be 17 µM. For the same compound, the IC50 in assay [2] (setting [6]) was over 33.3 µM.

As for `CCC(=O)N1c2ccccc2NC2=C(C(=O)CC(c3ccc(OC)c(OC)c3)C2)C1c1ccc(Cl)cc1` (stereo not drawn) [compound 228], the EC50 in assay [1] (setting [5]) was found to be 17.2 µM. For the same compound, the 50% inhibitory concentration (IC50) in assay [2] (setting [6]) was over 33.3 µM.

For the compound `CC(=O)N1c2ccccc2NC2=C(C(=O)CC(c3ccccc3Cl)C2)C1c1ccc(C)cc1` (stereo not drawn) [compound 229], the EC50 in assay [1] (setting [5]) stood at 10.9 µM. Also, in assay [2] (setting [6]), the IC50 was over 42.7 µM.

On to `Cc1ccc(C2CC(=O)C3=C(C2)Nc2ccccc2N(C(=O)C(F)(F)F)C3c2cccc(Cl)c2)cc1` (stereo not drawn) [compound 230], for which the EC50 in assay [1] (setting [5]) is 19.6 µM. Also, in assay [2] (setting [6]), the IC50 was over 33.3 µM.

`CCCCCC(=O)N1c2ccccc2NC2=C(C(=O)CC(c3ccc(OC)cc3)C2)C1c1ccc(Cl)cc1` (stereo not drawn) [compound 232]: the EC50 in assay [1] (setting [5]) was found to be 22.6 µM. Besides, in assay [2] (setting [6]), the IC50 was over 33.3 µM.

For `CC(=O)N1c2ccccc2NC2=C(C(=O)CC(c3cccc([N+](=O)[O-])c3)C2)C1c1ccccc1` (stereo not drawn) [compound 234], the EC50 in assay [1] (setting [5]) was 3.89 µM. Further, the IC50 in assay [2] (setting [6]) was over 36.2 µM.

For `CC(=O)N1c2ccccc2NC2=C(C(=O)CC(c3ccccc3F)C2)C1c1ccccc1` (stereo not drawn) [compound 236], the EC50 in assay [1] (setting [5]) was 11.8 µM. Further, in assay [2] (setting [6]), the IC50 was over 42.7 µM.

Turning to `CC1(C)CC(=O)C2=C(C1)Nc1ccccc1N(C(=O)Cc1ccccc1)C2c1cccs1` (stereo not drawn) [compound 240], in assay [1] (setting [3]), the EC50 amounted to 7.73 µM. Besides, in assay [2] (setting [4]), the IC50 was over 42.7 µM.

As to `CCC(=O)N1c2ccccc2NC2=C(C(=O)CC(C)(C)C2)C1c1ccc(-c2ccccc2[N+](=O)[O-])o1` (stereo not drawn) [compound 241], in assay [1] (setting [3]), the EC50 was 17.1 µM. The IC50 in assay [2] (setting [4]) is over 42.7 µM.

`CC(C)CC(=O)N1c2ccccc2NC2=C(C(=O)CC(C)(C)C2)C1c1ccc2c(c1)OCO2` (stereo not drawn) [compound 242]: the EC50 in assay [1] (setting [3]) is 1.77 µM. The IC50 in assay [2] (setting [4]) was over 42.7 µM.

Consider `CC(C)C(=O)N1c2ccccc2NC2=C(C(=O)CC(C)(C)C2)C1c1cccs1` (stereo not drawn) [compound 243], for which, in assay [1] (setting [3]), the EC50 is 25.5 µM. Moreover, the IC50 in assay [2] (setting [4]) is over 33.3 µM.

For `CC1(C)CC(=O)C2=C(C1)Nc1ccccc1N(C(=O)Cc1ccc(Cl)cc1)C2c1cccs1` (stereo not drawn) [compound 245], the EC50 in assay [1] (setting [3]) came to 3.51 µM. This compound showed an IC50 in assay [2] (setting [4]) of over 42.6 µM.

For the compound `CC(=O)N1c2ccccc2NC2=C(C(=O)CC(C)(C)C2)C1CC1CC=C(C)C1(C)C` (stereo not drawn) [compound 246], the EC50 in assay [1] (setting [3]) turned out to be 1.88 µM. In assay [2] (setting [4]), this compound registered an IC50 of over 42.7 µM.

As to `CC1(C)CC(=O)C2=C(C1)Nc1ccccc1N(C(=O)Cc1ccc(Cl)cc1)C2c1cccnc1` (stereo not drawn) [compound 247], the EC50 in assay [1] (setting [3]) came to 17.3 µM. Further, the IC50 in assay [2] (setting [4]) is over 33.3 µM.

With `CC(C)CC(=O)N1c2ccccc2NC2=C(C(=O)CC(C)(C)C2)C1c1cccs1` (stereo not drawn) [compound 248], the EC50 in assay [1] (setting [3]) amounted to 7.24 µM. The compound also yielded an IC50 in assay [2] (setting [4]) of over 42.6 µM.

Take `CCC(=O)N1c2ccccc2NC2=C(C(=O)CC(C)(C)C2)C1c1ccc(Br)s1` (stereo not drawn) [compound 249]: the EC50 in assay [1] (setting [3]) is 3.66 µM. Further, the 50% inhibitory concentration (IC50) in assay [2] (setting [4]) was over 42.7 µM.

Take `CC(=O)N1c2ccccc2NC2=C(C(=O)CC(C)(C)C2)C1c1ccc(-c2cccc([N+](=O)[O-])c2)o1` (stereo not drawn) [compound 250]: the EC50 in assay [1] (setting [3]) was 7.95 µM. The IC50 in assay [2] (setting [4]) is over 42.6 µM.

In the case of `CC1(C)CC(=O)C2=C(C1)Nc1ccccc1N(C(=O)Cc1ccc(F)cc1)C2c1cccs1` (stereo not drawn) [compound 251], in assay [1] (setting [3]), the EC50 was 9.88 µM. The IC50 in assay [2] (setting [4]) is over 42.6 µM.

`CC1(C)CC(=O)C2=C(C1)Nc1ccccc1N(C(=O)C1CC1)C2c1cccs1` (stereo not drawn) [compound 252]: in assay [1] (setting [3]), the EC50 is 4.76 µM. The compound also registered an IC50 in assay [2] (setting [4]) of over 42.7 µM.

On to `CC1(C)CC(=O)C2=C(C1)Nc1ccccc1N(C(=O)Cc1ccc(Cl)cc1)C2c1ccco1` (stereo not drawn) [compound 253], for which, in assay [1] (setting [3]), the EC50 amounted to 8.7 µM. In assay [2] (setting [4]), the IC50 was over 42.7 µM.

As to `CC1(C)CC(=O)C2=C(C1)Nc1ccccc1N(C(=O)c1ccc(Br)cc1)C2c1ccco1` (stereo not drawn) [compound 254], the EC50 in assay [1] (setting [3]) amounted to 15.3 µM. The compound further displayed a half-inhibitory concentration (IC50) in assay [2] (setting [4]) of over 42.6 µM.

Take `CCCCC(=O)N1c2ccccc2NC2=C(C(=O)CC(C)(C)C2)C1c1ccc(-c2cccc([N+](=O)[O-])c2)o1` (stereo not drawn) [compound 255]: the concentration for a half-maximal effect (EC50) in assay [1] (setting [3]) amounted to 21.8 µM. The same compound gave an IC50 in assay [2] (setting [4]) of over 42.7 µM.

As for `CC1(C)CC(=O)C2=C(C1)Nc1ccccc1N(C(=O)C(F)(F)F)C2c1ccc(-c2ccc([N+](=O)[O-])cc2)o1` (stereo not drawn) [compound 257], the EC50 in assay [1] (setting [3]) came out at 22.4 µM. Moreover, the IC50 in assay [2] (setting [4]) was over 42.7 µM.

With `CC(=O)N1c2ccccc2NC2=C(C(=O)CC(C)(C)C2)C1c1cccnc1` (stereo not drawn) [compound 258], the EC50 in assay [1] (setting [3]) is over 32 µM. The compound further gave an IC50 in assay [2] (setting [4]) of over 42.7 µM.

As for `CC(C)C(=O)N1c2ccccc2NC2=C(C(=O)CC(C)(C)C2)C1c1cccnc1` (stereo not drawn) [compound 259], the EC50 in assay [1] (setting [3]) was over 33 µM. Besides, the IC50 in assay [2] (setting [4]) was 29.5 µM.

As for `Cn1cccc1C1C2=C(CC(C)(C)CC2=O)Nc2ccccc2N1C(=O)C(F)(F)F` (stereo not drawn) [compound 260], the EC50 in assay [1] (setting [3]) came out at 22.5 µM. For the same compound, the IC50 in assay [2] (setting [4]) is over 42.7 µM.

For `CCC(=O)N1c2ccc(C(=O)c3ccccc3)cc2NC2=C(C(=O)CC(C)(C)C2)C1c1ccco1` (stereo not drawn) [compound 261], in assay [1] (setting [5]), the EC50 was determined as 9.3 µM. Moreover, the IC50 in assay [2] (setting [6]) is over 42.7 µM.

As to `CC(C)C(=O)N1c2ccccc2NC2=C(C(=O)CC(C)(C)C2)C1c1ccc(Br)s1` (stereo not drawn) [compound 262], the EC50 in assay [1] (setting [3]) was 5.54 µM. The IC50 in assay [2] (setting [4]) is over 42.7 µM.

In the case of `CCCCC(=O)N1c2ccccc2NC2=C(C(=O)CC(C)(C)C2)C1c1cccs1` (stereo not drawn) [compound 263], the EC50 in assay [1] (setting [3]) was found to be 10.4 µM. This compound also registered an IC50 in assay [2] (setting [4]) of over 42.7 µM.

Turning to `CC1(C)CC(=O)C2=C(C1)Nc1ccccc1N(C(=O)c1ccccc1)C2/C=C/c1ccccc1` (stereo not drawn) [compound 264], the EC50 in assay [1] (setting [5]) came to 8.87 µM. Besides, the IC50 in assay [2] (setting [6]) is over 42.7 µM.
